Patent US12616754B2, “Composition for delivery of a bioactive agent and method of manufacture and use thereof” (priority 2020, dated 2026)

Assays:
Assay in all cases: Cell viability WST-8 assay
Assay type in all cases: cell-based
[1] = system: LL2 Lewis lung carcinoma cells; settings: LL2, 24 h
Description: (§1) A549, BEAS-2B, H1299 and LL2 cells were cultured in 96-well plates at a density of 1×10^4 cells/well in DMEM supplemented with 2.0 mM L-glutamine, 50 μg/mL gentamicin, and 10% (v/v) fetal bovine serum at 37° C. in 5% CO2. Cells were then treated with various concentrations of free DOX, DNA NGs, and DNA-DOX NGs. After 24 h incubation, cell proliferation was evaluated using a WST-8 reagent (Dojindo Molecular Laboratories, Japan). After transferring the supernatant to 96-well plates, the supernatant was measured on a VersaMax Microplate Reader (Molecular Devices, Sunnyvale, CA, USA) at the wavelength of 405 nm. Cell viability was determined using the following equation: cell viability (%)=[(Abs405 nm in the treated sample cells−Abs405 nm in blank)/(Abs405 nm in untreated control cells−Abs405 nm in blank)]×100, wherein Abs405 nm refers to absorbance at 405 nm.

[2] = system: BEAS-2B bronchial epithelial cells; settings: 24 h
Description: as §1

[3] = system: H1299 non-small cell lung carcinoma cells; settings: H1299, 24 h
Description: as §1

[4] = system: A549 lung adenocarcinoma cells; settings: A549, 24 h
Description: as §1

COc1cccc2c1C(=O)c1c(O)c3c(c(O)c1C2=O)C[C@@](O)(C(=O)CO)C[C@@H]3O[C@H]1C[C@H](N)[C@H](O)[C@H](C)O1.Cl [Free DOX, doxorubicin hydrochloride]
IC50 [1]: 2.33 µg/mL | IC50 [2]: 5.11 µg/mL | IC50 [3]: 18.9 µg/mL | IC50 [4]: 2.92 µg/mL
